Experiments:
GST tagged PIP4KtypeIIB = target: T1, GST tagged PIP4KtypeIIB (Homo sapiens, UniProt P78356); assay: Trans-FI P kinase assay PIP4K2B (PIP4KtypeIIB inhibition assay); format: biochemical; conditions: Table 4; compounds listed under IC50 range headings; 100 uM GTP, 5 nM PIP4KIIB; read-out: Trans-FI P kinase assays: PIP4K2B IC50
T1 construct: made in house; host or cells: E. coli
T1 sequence (P78356 1-416): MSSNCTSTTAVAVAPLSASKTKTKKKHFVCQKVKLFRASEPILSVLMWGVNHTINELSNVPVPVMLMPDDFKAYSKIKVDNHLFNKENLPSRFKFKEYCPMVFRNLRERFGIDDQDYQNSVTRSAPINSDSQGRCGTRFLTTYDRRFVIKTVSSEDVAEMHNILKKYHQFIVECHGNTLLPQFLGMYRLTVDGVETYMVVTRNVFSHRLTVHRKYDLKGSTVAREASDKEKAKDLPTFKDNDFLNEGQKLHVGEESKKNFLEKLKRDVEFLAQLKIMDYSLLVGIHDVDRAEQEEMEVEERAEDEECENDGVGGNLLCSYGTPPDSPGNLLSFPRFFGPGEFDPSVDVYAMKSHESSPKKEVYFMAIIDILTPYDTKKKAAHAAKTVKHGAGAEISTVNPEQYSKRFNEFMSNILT
Method in brief: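 Transcreener FI fluorescence, converted to GDP by calibration, tracked product from 5 nM E. coli-expressed GST-PIP4KIIB acting on 80 uM PI5P (DOPE carrier) with 100 uM GTP. Compound (top 4.8 uM final, 5% DMSO) was preincubated 1 h at 27 C before the 2 h reaction; IC50 fitted from residual activity.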

GST tagged PIP4KtypeIIA = target: T2, GST tagged PIP4KtypeIIA (Homo sapiens, UniProt P48426); assay: ADP-glo kinase assay PIP4K 2A (PIP4KtypeIIA inhibition assay); format: biochemical; conditions: Table 3; compounds listed under IC50 range headings; 10 uM ATP, 0.5 nM PIP4KIIA
T2 construct: made in house; host or cells: E. coli
T2 sequence (P48426 1-406): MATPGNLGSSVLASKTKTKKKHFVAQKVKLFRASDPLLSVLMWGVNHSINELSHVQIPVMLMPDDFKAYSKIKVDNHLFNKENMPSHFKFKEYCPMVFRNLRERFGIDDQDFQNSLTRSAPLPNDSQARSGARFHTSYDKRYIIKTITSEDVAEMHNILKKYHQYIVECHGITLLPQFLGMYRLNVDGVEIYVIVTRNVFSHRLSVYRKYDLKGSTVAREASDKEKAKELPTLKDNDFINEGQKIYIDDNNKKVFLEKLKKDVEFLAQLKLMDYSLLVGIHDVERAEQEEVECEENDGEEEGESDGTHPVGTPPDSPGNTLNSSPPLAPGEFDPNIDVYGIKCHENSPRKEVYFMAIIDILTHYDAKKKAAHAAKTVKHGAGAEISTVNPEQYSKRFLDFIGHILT
Source text: GST tagged PIP4KtypeIIA and B enzymes were overexpressed in E. Coli and purified to >80% homogeneity. Phosphatidyl inositol-5-phosphate (PI5P, Cat. #850152, Avanti Polar Lipids Inc.) was used as the lipid substrate and phosphatidyl ethanolamine (DOPE 18:1, Cat. #850725, Avanti Polar Lipids Inc.) was used as the carrier lipid for assays. Ultrapure ATP and GTP was purchased from Bellbrooke Labs. ADP Glo reagents were obtained from Promega. Transcreener FI reagent was obtained from Bellbrooke labs.
1. HEPES buffer mix: 200 mM HEPES pH 7.4, 50 mM MgCl2, 0.05% v/v triton×100
2. HNE buffer: 20 mM HEPES, pH 7.4, 100 mM NaCl, 0.5 mM EGTA
3. H:E buffer: 30 mM HEPES, pH 7.4, 1 mM EGTA
Enzyme preparation: GST-tagged PIP4KtypeIIA (5 uL, 1.43 mg/mL) was diluted (1:10) to 50 uL using HNE buffer. From the 1:10 diluted stock, a 6.4 uL aliquot was diluted further to 5 mL using HNE buffer to yield 5× enzyme stock (2.5 nM).
Lipid Preparation: In a 10 mL pyrex glass vial, lug of PI5P and lug of DOPE were suspended in 2.5 mL of HEPES buffer mix and 2.5 mL of H:E buffer. The contents were mixed and sonicated for 3 min to yield a translucent lipid stock.
Compound Preparation: Compounds were stored as 5 mM stocks in neat DMSO as room temperature in glass vials. 5 mM stocks were diluted to 2 mM and then serially diluted (3×) in neat DMSO in 96 well polypropylene plates. From the serially diluted stocks, 3 uL was delivered into 250 uL of 25% DMSO (in water) to generate 5× compound stocks. Typically, the highest compound conc. was 24 uM.
The assay volume was kept at 25 uL. To each well of the reaction plate, 10 uL of lipid stock (1:1 ratio PI5P:DOPE) was delivered. This was followed by the addition of 5 uL of compound in 25% DMSO. Then, to each well, 5 uL of 2.5 nM (5×) typeIIA enzyme was delivered. The contents were mixed well and incubated for 1 h at 27 C. After 1 h, reaction was initiated by adding 5 uL of 50 uM ATP and the contents were mixed well with a multi-channel pipetteman. The final concentration of the reagents are as follows: 50 mM HEPES, pH 7.3, 10 mM MgCl2, 20 mM NaCl, 0.01% v/v triton-X100, 5% DMSO, 10 uM ATP, 80 uM (2 ug) PI5P, 2 ug DOPE, and 0.5 nM PIP4KIIA. Typically, the highest conc. of compounds was 4.8 uM and the lowest conc. was 0.
After 1 hr, the reaction was quenched by adding 25 uL of ADP Glo reagent. The contents were incubated for 1 hr. Afterwards, 50 uL of kinase detection reagent was delivered. The contents were incubated for another hour. The luminescence was read using Molecular Devices Paradigm plate reader. […] The blanks were averaged and subtracted from all other wells. Using a calibration curve, RLU was converted to uM ADP (product). IC50 was calculated by plotting the residual activity (expressed as % No inhibitor control) vs. log [Inh. conc.]

IC50 (GST tagged PIP4KtypeIIB)	IC50 (GST tagged PIP4KtypeIIA)	Structure (SMILES)
10 to 100 nM	100 to 1000 nM	O=C(NCc1ccccn1)c1cc2c(-c3cncc(-c4ccc(N5CCCC5=O)cc4)c3)ccnc2[nH]1 [Example 239, 4-(5-(4-(2-oxopyrrolidin-1-yl)phenyl)pyridin-3-yl)-N-(pyridin-2-ylmethyl)-1H-pyrrolo[2,3-b]pyridine-2-carboxamide]
100 to 1000 nM	1000 to 2500 nM	COC(=O)c1cc2c(-c3cncc(-c4ccc(N5CCCC5=O)cn4)c3)ccnc2[nH]1 [Example 248, methyl 4-(5-(2-oxopyrrolidin-1-yl)-[2,3′-bipyridin]-5′-yl)-1H-pyrrolo[2,3-b]pyridine-2-carboxylate]
> 5000 nM	> 5000 nM	CN1CCn2c(cc3c(-c4cncc(-c5ccc(N6C(=O)Cc7ccccc76)cc5)c4)ccnc32)C1=O [Example 202, 7-methyl-4-(5-(4-(2-oxoindolin-1-yl)phenyl)pyridin-3-yl)-8,9-dihydropyrido[3′,2′:4,5]pyrrolo[1,2-a]pyrazin-6(7H)-one]
10 to 100 nM	10 to 100 nM	CC(O)c1cnc2[nH]c(C3CC3)c(-c3cncc(-c4ccc(N5CCCC5=O)cc4)c3)c2c1 (centres unmarked) [Example 291, 1-(4-(5-(2-cyclopropyl-5-(1-hydroxyethyl)-1H-pyrrolo[2,3-b]pyridin-3-yl)pyridin-3-yl)phenyl)pyrrolidin-2-one]
100 to 1000 nM	100 to 1000 nM	COC(=O)c1cc2c(-c3cncc(-c4ccc(N5CCCC5=O)cc4)c3)c(Cl)cnc2[nH]1 [Example 296, methyl 5-chloro-4-(5-(4-(2-oxopyrrolidin-1-yl)phenyl)pyridin-3-yl)-1H-pyrrolo[2,3-b]pyridine-2-carboxylate]
100 to 1000 nM	100 to 1000 nM	O=C(c1cc2c(-c3cncc(-c4ccc(N5CCCC5=O)cc4)c3)ccnc2[nH]1)N1CCCC1 [Example 235, 1-(4-(5-(2-(pyrrolidine-1-carbonyl)-1H-pyrrolo[2,3-b]pyridin-4-yl)pyridin-3-yl)phenyl)pyrrolidin-2-one]
10 to 100 nM	100 to 1000 nM	O=C(NCCc1ncc[nH]1)c1cc2c(-c3cncc(-c4ccc(N5CCCC5)cc4)c3)ccnc2[nH]1 [Example 244, N-(2-(1H-imidazol-2-yl)ethyl)-4-(5-(4-(pyrrolidin-1-yl)phenyl)pyridin-3-yl)-1H-pyrrolo[2,3-b]pyridine-2-carboxamide]
1000 to 2500 nM	100 to 1000 nM	CN(C)S(=O)(=O)c1cnc2[nH]cc(-c3cncc(-c4ccc(N5CCCC5=O)cc4)c3)c2c1 [Example 295, N,N-dimethyl-3-(5-(4-(2-oxopyrrolidin-1-yl)phenyl)pyridin-3-yl)-1H-pyrrolo[2,3-b]pyridine-5-sulfonamide]

More lines, now with the values behind:

Structure (SMILES)	IC50 (GST tagged PIP4KtypeIIB)	IC50 (GST tagged PIP4KtypeIIA)
CN(C)C(=O)c1ccc(-c2cc(-c3ccnc4[nH]c(C(=O)NC5COC5)cc34)cnc2N)nc1 [Example 146, 4-(2′-amino-5-(dimethylcarbamoyl)-[2,3′-bipyridin]-5′-yl)-N-(oxetan-3-yl)-1H-pyrrolo[2,3-b]pyridine-2-carboxamide]	10 to 100 nM	100 to 1000 nM
COCc1cc(-c2cncc(-c3ccc(N4CCCC4=O)cc3)c2)n2nc(C)cc2n1 [Example 285, 1-(4-(5-(5-(methoxymethyl)-2-methylpyrazolo[1,5-a]pyrimidin-7-yl)pyridin-3-yl)phenyl)pyrrolidin-2-one]	2500 to 5000 nM	2500 to 5000 nM
CC(C)c1cc(=O)n2ncc(-c3cncc(-c4ccc(N5CCCC5=O)cc4)c3)c2[nH]1 [Example 281, 5-isopropyl-3-(5-(4-(2-oxopyrrolidin-1-yl)phenyl)pyridin-3-yl)pyrazolo[1,5-a]pyrimidin-7(4H)-one]	1000 to 2500 nM	1000 to 2500 nM
CN(C)C(=O)c1cnc2ccn(-c3cncc(-c4ccc(N5CCCC5=O)cc4)c3)c2c1 [Example 254, N,N-dimethyl-1-(5-(4-(2-oxopyrrolidin-1-yl)phenyl)pyridin-3-yl)-1H-pyrrolo[3,2-b]pyridine-6-carboxamide]	100 to 1000 nM	100 to 1000 nM
Cc1nc(-c2cncc(-c3ccc(N4CCCC4=O)cc3)c2)c2sc(N3CCCCC3)nc2n1 [Example 286, 1-(4-(5-(5-methyl-2-(piperidin-1-yl)thiazolo[4,5-d]pyrimidin-7-yl)pyridin-3-yl)phenyl)pyrrolidin-2-one]	100 to 1000 nM	10 to 100 nM
CN(C)C(=O)c1ccc(-c2cc(-c3cc(Nc4cc(N)ccn4)ncn3)cnc2N)nc1 [Example 222, 2′-amino-5′-(6-((4-aminopyridin-2-yl)amino)pyrimidin-4-yl)-N,N-dimethyl-[2,3′-bipyridine]-5-carboxamide]	2500 to 5000 nM	> 5000 nM
CCc1cccc2c1CC(=O)N2c1ccc(-c2cncc(-c3ccnc4c3cc3n4CCN(C)C3=O)c2)cc1 [Example 209, 4-(5-(4-(4-ethyl-2-oxoindolin-1-yl)phenyl)pyridin-3-yl)-7-methyl-8,9-dihydropyrido[3′,2′:4,5]pyrrolo[1,2-a]pyrazin-6(7H)-one]	1000 to 2500 nM	> 5000 nM
CN(C)C(=O)c1ccc(-c2cc(-c3ccnc4[nH]c(C(=O)NCC(=O)O)cc34)cnc2N)nc1 [Example 145, (4-(2′-amino-5-(dimethylcarbamoyl)-[2,3′-bipyridin]-5′-yl)-1H-pyrrolo[2,3-b]pyridine-2-carbonyl)glycine]	100 to 1000 nM	100 to 1000 nM
O=C(Nc1ccc(-c2cncc(-c3ccnc4[nH]ncc34)c2)cc1)C(=O)N1C2CCC1CC2 [Example 204, N-(4-(5-(1H-pyrazolo[3,4-b]pyridin-4-yl)pyridin-3-yl)phenyl)-2-(7-azabicyclo[2.2.1]heptan-7-yl)-2-oxoacetamide]	> 5000 nM	100 to 1000 nM
C[C@@H](O)c1cnc2c(c1)c(-c1cncc(-c3ccc(N4CCCC4=O)cc3)c1)cn2C [Example 293, (R)-1-(4-(5-(5-(1-hydroxyethyl)-1-methyl-1H-pyrrolo[2,3-b]pyridin-3-yl)pyridin-3-yl)phenyl)pyrrolidin-2-one]	100 to 1000 nM	100 to 1000 nM
CN1CCn2c(cc3c(-c4cncc(-c5ccc(N6CC(C)(C)CC6=O)cc5)c4)ccnc32)C1=O [Example 200, 4-(5-(4-(4,4-dimethyl-2-oxopyrrolidin-1-yl)phenyl)pyridin-3-yl)-7-methyl-8,9-dihydropyrido[3′,2′:4,5]pyrrolo[1,2-a]pyrazin-6(7H)-one]	10 to 100 nM	100 to 1000 nM

From patent US11919902B2, “Aryl-bipyridine amine derivatives as phosphatidylinositol phosphate kinase inhibitors” (HiberCell, Inc., priority 2017, dated 2024)
